The results in this text go back to patent publication US9623012B2, “Formulation comprising benzothiazolone compound” (priority 2013, dated 2017).

As a reminder, the EC50 is the concentration needed to bring the measured effect to its halfway point. By Emax is commonly meant the greatest response seen or fitted, relative to the assay's reference.

The target in data set [1] is human β2 adrenoceptor (β2 AR) (Homo sapiens, UniProt P07550). Description: cAMP response in CHO cells stably transfected with human β2 adrenoceptor (Test 1).
Data set [2] concerns the target T1, Serotonin 5-HT2C receptor (Homo sapiens, UniProt P28335).
T1 construct: expressed in transfected cells; host or cells: CHO-K1 cells coexpressing mitochondrial apoaequorin and Gα16
T1 sequence (P28335 33-458): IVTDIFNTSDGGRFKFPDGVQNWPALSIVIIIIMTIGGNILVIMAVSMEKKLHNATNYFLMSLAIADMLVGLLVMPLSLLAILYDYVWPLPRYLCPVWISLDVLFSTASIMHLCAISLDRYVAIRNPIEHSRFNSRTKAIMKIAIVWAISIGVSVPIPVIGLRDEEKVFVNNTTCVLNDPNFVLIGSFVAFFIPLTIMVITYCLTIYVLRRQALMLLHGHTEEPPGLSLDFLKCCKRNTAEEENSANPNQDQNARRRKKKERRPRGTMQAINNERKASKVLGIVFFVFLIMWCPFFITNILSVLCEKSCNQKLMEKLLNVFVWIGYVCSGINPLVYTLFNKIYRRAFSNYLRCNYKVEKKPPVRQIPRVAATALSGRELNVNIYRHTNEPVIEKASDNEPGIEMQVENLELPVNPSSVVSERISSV
Description: Aequorin agonist assay in CHO-K1 cells expressing Serotonin 5-HT2C. In kind it is cell-based. Particulars: aequorin luminescence, agonist mode.
Description: CHO-K1 cells coexpressing mitochondrial apoaequorin, recombinant Serotonin 5-HT2Cne and the promiscuous G protein Gα16, grown to mid-log phase in culture media without antibiotics were detached with PBS-EDTA, centrifuged and resuspended in assay buffer (DMEM/HAM's F12 with HEPES, without phenol red+0.1% BSA protease free) at a concentration of 1×10^6 cells/ml. Cells were incubated at room temperature for at least 4 h with coelenterazine h. […] For agonist testing, 50 μL of cell suspension were mixed with 50 μL of test or reference agonist in a 96-well plate. The resulting emission of light is recorded using Hamamatsu Functional Drug Screening System 6000 (FDSS 6000) luminometer. Agonist activity of test compound was expressed as a percentage of the activity of the reference agonist at its EC100 concentration.

For the next data set, the target named is T2, human 5-HT2C receptor (Homo sapiens, UniProt P28335).
T2 construct: purchased Biosignal Packard, USA; host or cells: CHO cell membranes
T2 sequence (P28335 33-458): T1 sequence (P28335 33-458)
Description: 3H-Mesulergine binding to hr5-HT2C CHO cell membranes. Particulars: 3H-Mesulergine 1 nM, kind of constant not given. How it is done:
Non-specific binding is evaluated in the presence of 1 μM Mesulergine. Fifty μL each of membrane, ligand and compound in a total volume of […] are incubated in 96-well plates for 60 min at 22° C. in a buffer containing 50 mM Tris, 0.1% ascorbic acid, 10 μM Pargyline, pH 7.7. The plates are filtrated, washed 3 times in ice-cold 50 mM Tris, dried and measured in Topcount.

In data set [3] the target is human β1 adrenoceptor (β1 AR) (Homo sapiens, UniProt P08588). Description: cAMP response in CHO cells stably transfected with human β1 adrenoceptor (Test 1).
The nature of data set [4]: Comparative solubility in H2O with pH adjustment. Format: physicochemical. The method, then:
The relative solubilities of the free base form and the acetate and glycolate salt forms of Compound A were analysed and the results are show in the table below. Solutions were titrated with addition of HCl or NaOH for pH adjustment. The improved aqueous solubilities of the acetate and glycolate salt forms relative to the free base form of Compound A make the acetate and glycolate salts of Compound A more suitable for subcutaneous injection or infusion.

The next data set relates to Male Wistar Han IGS rats. Format: in vivo. As to conditions: rat, s.c. minipump 4 weeks; formoterol 0.003-0.03, Compound A 0.01-0.1 mg/kg/day.
The next data set has as its system Wistar Han rats. Description: Heart rate in vivo in rats after s.c. bolus. Particulars: rat, s.c. bolus up to 0.3 mg/kg. An excerpt: Wistar Han (W-H) IGS (International Genetic Standard) rats (Crl:WI(Han)) were purchased from Charles River Laboratories. Femoral arterial and venous catheters were chronically implanted and exteriorized through a spring tether-swivel system and housed in specialized cages. Arterial catheter was connected to a pressure transducer to continuously measure pulse pressure, mean arterial pressure and heart rate, which was derived from the blood pressure signal, via a digital data acquisition system. Compounds were administered via s.c catheter implanted through the skin buttun. Values are expressed as means±SEM (n=3).

The subject of data set [5] is left atria from Dunkin Hartley Guinea pig. Description: Left atrium contraction assay (Ricerca, Adrenergic beta1).
In the next data set the test system is Rhesus monkeys. Description: Heart rate in vivo in rhesus monkeys after s.c. bolus. As to conditions: rhesus monkey, s.c. bolus up to 0.03 mg/kg. The method, then:
Rhesus monkeys, 24 females with body weight around 4 to 8 kg, were randomized into 4 groups of n=6. The animals were restrained on a chair up to 4 hours after single subcutaneous administration of compounds, and then returned to their pens. Heart rates were measured using a Surgivet V3304 device. Values are expressed as means±SEM (n=6).

For data set [6], the target named is T3, human adrenergic Alpha1A (α1A AR) (Homo sapiens, UniProt P35348).
T3 sequence (P35348 1-466): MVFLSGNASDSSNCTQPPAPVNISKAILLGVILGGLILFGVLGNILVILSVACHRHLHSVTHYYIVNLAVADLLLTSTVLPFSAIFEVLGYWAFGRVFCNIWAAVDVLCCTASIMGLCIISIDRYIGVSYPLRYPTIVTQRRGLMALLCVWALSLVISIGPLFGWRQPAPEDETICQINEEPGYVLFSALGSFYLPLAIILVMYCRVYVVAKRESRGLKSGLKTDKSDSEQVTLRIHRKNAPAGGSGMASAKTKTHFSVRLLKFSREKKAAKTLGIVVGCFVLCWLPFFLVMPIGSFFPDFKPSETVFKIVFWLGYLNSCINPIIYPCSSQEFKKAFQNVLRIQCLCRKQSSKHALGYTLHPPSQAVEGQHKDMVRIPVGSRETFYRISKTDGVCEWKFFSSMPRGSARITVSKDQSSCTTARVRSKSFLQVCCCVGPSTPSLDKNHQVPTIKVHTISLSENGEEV
Description: Ca2+ FLIPR assay in human adrenergic Alpha1A CHO-K1 cell line (Test 1). As to conditions: read-out: CHO cells EC50 α1A AR. Format: cell-based.
Description: Compounds acting as agonists induce a transient increase of intracellular calcium. This was recorded on the FLIPR system. A measurement of the signal baseline was first recorded every second for 2 minutes before the injection of the compounds. […] Low controls (unstimulated cells) were determined with the addition of 5 μL of assay buffer.

Each structure is given as a SMILES string. Where a name gives a salt, the structure may show the parent alone.

Chain of human β2 adrenoceptor (β2 AR) (P07550 whole entry): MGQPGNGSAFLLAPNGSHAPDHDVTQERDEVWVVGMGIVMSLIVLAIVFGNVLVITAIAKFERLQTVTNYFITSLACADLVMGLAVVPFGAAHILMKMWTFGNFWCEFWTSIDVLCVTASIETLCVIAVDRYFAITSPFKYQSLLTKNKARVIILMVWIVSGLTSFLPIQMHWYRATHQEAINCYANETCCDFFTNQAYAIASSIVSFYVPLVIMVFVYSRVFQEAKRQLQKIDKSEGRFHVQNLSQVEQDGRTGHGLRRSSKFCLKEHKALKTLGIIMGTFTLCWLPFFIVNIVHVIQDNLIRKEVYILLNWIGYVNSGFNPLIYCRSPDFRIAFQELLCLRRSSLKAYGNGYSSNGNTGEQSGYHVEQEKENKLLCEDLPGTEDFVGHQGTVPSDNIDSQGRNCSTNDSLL
Chain of human β1 adrenoceptor (β1 AR) (P08588 whole entry): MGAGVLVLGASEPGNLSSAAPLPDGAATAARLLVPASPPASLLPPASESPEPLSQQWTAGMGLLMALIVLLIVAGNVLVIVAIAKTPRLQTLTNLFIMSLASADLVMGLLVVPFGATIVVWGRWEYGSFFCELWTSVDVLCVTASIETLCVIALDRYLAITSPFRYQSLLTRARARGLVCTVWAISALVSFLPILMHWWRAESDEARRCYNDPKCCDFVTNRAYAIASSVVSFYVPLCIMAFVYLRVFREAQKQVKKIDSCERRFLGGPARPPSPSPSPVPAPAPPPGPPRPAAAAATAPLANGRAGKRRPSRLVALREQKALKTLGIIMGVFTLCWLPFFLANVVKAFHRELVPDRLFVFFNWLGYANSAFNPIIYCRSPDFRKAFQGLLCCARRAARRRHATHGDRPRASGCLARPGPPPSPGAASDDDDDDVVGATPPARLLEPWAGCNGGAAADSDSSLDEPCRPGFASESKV
Description for Male Wistar Han IGS rats: Male Wistar Han IGS (International Genetic Standard) rats (Crl:WI(Han)) at the weight of 350-400 g were purchased from Charles River Laboratories. Rats were acclimated to the facility for 7 days. Animals were housed in groups of 3 animals at 25° C. with a 12:12 h light-dark cycle. They were fed a standard laboratory diet containing 18.2% protein and 3.0% fat with an energy content of 15.8 MJ/kg (NAFAG 3890, Kliba, Basel, Switzerland). Food and water were provided ad libitum. […] Pumps were filled with the solution and kept for several hours at 37° C. in PBS until surgical implantation. Rats were treated subcutaneously with Temgesic at a dose of 0.02 mg/kg with a volume of 1 ml/kg at least 30 minutes before surgery, and then the pumps filled with the solution indicated above were implanted subcutaneously into the back of the rats under anesthesia with isoflurane at a concentration of 3%. Temgesic was administered subcutaneously to the rats 24 h and 48 h after the surgery. Body weights were measured twice per week. Clips were removed 10 days after the surgery under anesthesia. Four weeks after the treatment, the rats were euthanized with CO2, and the tibialis anterior, gastrocnemius and soleus muscles, heart and brain were dissected and weighed. Brain weight was used for normalization of organ weights. Results are expressed as mean +/−SEM. […]

Regarding `CCCCOc1ccc(CC(C)(C)NCC(O)c2cc(O)cc3[nH]c(=O)sc23)cc1` (racemic) [Compound A/B], the results for the EC50 in [1], in data set [2] and in [3] were 11 nM, 25 nM and 684 nM, respectively. At human 5-HT2C receptor, the “Serotonin 5-HT2C Binding” value is 1.7 µM.
Regarding `CCCCOc1ccc(CC(C)(C)NC[C@H](O)c2cc(O)cc3[nH]c(=O)sc23)cc1` [Compound A (R) acetate salt, (R)-7-(2-(1-(4-butoxyphenyl)-2-methylpropan-2-ylamino)-1-hydroxyethyl)-5-hydroxybenzo[d]thiazol-2(3H)-one acetate salt], the Emax in data set [1] (CHO, read-out: CHO cells Emax % β2 AR, cAMP, compared to isoprenaline) was found to be 91%.
`CCCCOc1ccc(CC(C)(C)NC[C@H](O)c2cc(O)cc3[nH]c(=O)sc23)cc1.O=C(O)CO` [Compound A glycolate salt]: the “solubility in H2O, Conc” value turned out to be 13100 µg/mL in [4] (pH 5.1), 6390 µg/mL in data set [4] (pH 5.3) and 4470 µg/mL in data set [4] (pH 5.4).
As to `CCCCOc1ccc(CC(C)(C)NC[C@H](O)c2cc(O)cc3[nH]c(=O)sc23)cc1` [Compound A, (R)-7-(2-(1-(4-butoxyphenyl)-2-methylpropan-2-ylamino)-1-hydroxyethyl)-5-hydroxybenzo[d]thiazol-2(3H)-one], the “solubility in H2O, Conc” value in data set [4] (pH 7.3) and in data set [4] (pH 7.8) was below 10 µg/mL each time. Besides, the “skeletal muscle mass and heart mass increase (FIG. 1)” value with Male Wistar Han IGS rats was “induces skeletal muscle hypertrophy with minimum impact on heart mass”. The “Serotonin 5-HT2C Binding” value at human 5-HT2C receptor was found to be 11 µM. The heart rate increase entry was “less heart rate increases compared to formoterol” in the data set on Wistar Han rats and “less heart rate increase compared to formoterol” with Rhesus monkeys. The EC50 in [5] (Cavia porcellus, guinea pig left atria, n = 2) is above 10000 nM. Further, the “effects on left atrium contraction” value in data set [5] (up to 10 μM) is “no effects”.
Take `CCCCOc1ccc(CC(C)(C)NC[C@@H](O)c2cc(O)cc3[nH]c(=O)sc23)cc1` [Compound B (S)]: the EC50 in [1] is 950 nM; in data set [6], above 30000 nM; in [2], 19.7 nM; in [3], above 10000 nM. The “Serotonin 5-HT2C Binding” value at human 5-HT2C receptor was determined as 0.8 µM.
